Measurements reported in article PMC11397024, “Strategic Fluorination to Achieve a Potent, Selective, Metabolically Stable, and Orally Bioavailable Inhibitor of CSNK2” (Molecules, 2024).

Assays:
Assay in all cases: NanoBRET K192
Assay type in all cases: cell-based
EPHA6 = target: T1, EPHA6 (Homo sapiens, UniProt Q9UF33); settings: HEK293
T1 construct: purchased Promega (NanoBRET Target Engagement K192 Kinase Selectivity System)
Outline: (§1)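 HEK293 cells were transfected overnight with NanoLuc–kinase fusion vectors, then treated for 2 h at 37 °C with compound (added as 100 μM working solution) plus K10 tracer. BRET was read at 450/610 nm after substrate and extracellular inhibitor, and fractional occupancy was calculated against no-compound controls.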

CDK2 + E1 = target: T2, CDK2 + E1 (Homo sapiens, UniProt P24941); settings: HEK293
T2 construct: purchased Promega (NanoBRET Target Engagement K192 Kinase Selectivity System)
Outline: as §1

NEK5 = target: T3, NEK5 (Homo sapiens, UniProt Q6P3R8); settings: HEK293
T3 construct: purchased Promega (NanoBRET Target Engagement K192 Kinase Selectivity System)
Outline: as §1

MAP3K9 = target: T4, MAP3K9 (Homo sapiens, UniProt P80192); settings: HEK293
T4 construct: purchased Promega (NanoBRET Target Engagement K192 Kinase Selectivity System)
Outline: as §1

STK33 = target: T5, STK33 (Homo sapiens, UniProt Q9BYT3); settings: HEK293
T5 construct: purchased Promega (NanoBRET Target Engagement K192 Kinase Selectivity System)
Outline: as §1

ERN2 = target: T6, ERN2 (Homo sapiens, UniProt Q76MJ5); settings: HEK293
T6 construct: purchased Promega (NanoBRET Target Engagement K192 Kinase Selectivity System)
Outline: as §1

PTK6 = target: T7, PTK6 (Homo sapiens, UniProt Q13882); settings: HEK293
T7 construct: purchased Promega (NanoBRET Target Engagement K192 Kinase Selectivity System)
Outline: as §1

NTRK1v1 = target: T8, NTRK1v1 (Homo sapiens, UniProt P04629); settings: HEK293
T8 construct: purchased Promega (NanoBRET Target Engagement K192 Kinase Selectivity System)
Outline: as §1

HIPK2 = target: T9, HIPK2 (Homo sapiens, UniProt Q9H2X6); settings: HEK293
T9 construct: purchased Promega (NanoBRET Target Engagement K192 Kinase Selectivity System)
Outline: as §1

ULK3v1 = target: T10, ULK3v1 (Homo sapiens, UniProt Q6PHR2); settings: HEK293
T10 construct: host or cells: HEK293
Outline: as §1

BRAF(V600E) = target: T11, BRAF(V600E) (Homo sapiens, UniProt P15056, V600E); settings: HEK293
T11 construct: purchased Promega (NanoBRET Target Engagement K192 Kinase Selectivity System)
Outline: as §1

LIMK2 = target: T12, LIMK2 (Homo sapiens, UniProt P53671); settings: HEK293
T12 construct: purchased Promega (NanoBRET Target Engagement K192 Kinase Selectivity System)
Outline: as §1

CSNK2A1 = target: T13, CSNK2A1 (Homo sapiens, UniProt P68400)
T13 construct: expressed in transfected cells; host or cells: HEK293
Outline: as §1

PLK2 = target: T14, PLK2 (Homo sapiens, UniProt Q9NYY3); settings: HEK293
T14 construct: purchased Promega (NanoBRET Target Engagement K192 Kinase Selectivity System)
Outline: as §1

EPHB1 = target: T15, EPHB1 (Homo sapiens, UniProt P54762); settings: HEK293
T15 construct: purchased Promega (NanoBRET Target Engagement K192 Kinase Selectivity System)
Outline: as §1

MAP4K1 = target: T16, MAP4K1 (Homo sapiens, UniProt Q92918); settings: HEK293
T16 construct: purchased Promega (NanoBRET Target Engagement K192 Kinase Selectivity System)
Outline: as §1

PTK2 = target: T17, PTK2 (Homo sapiens, UniProt Q05397); settings: HEK293
T17 construct: purchased Promega (NanoBRET Target Engagement K192 Kinase Selectivity System)
Outline: as §1

CSNK1A1L = target: T18, CSNK1A1L (Homo sapiens, UniProt Q8N752); settings: HEK293
T18 construct: purchased Promega (NanoBRET Target Engagement K192 Kinase Selectivity System)
Outline: as §1

PRKAA2 = target: T19, PRKAA2 (Homo sapiens, UniProt P54646); settings: HEK293
T19 construct: purchased Promega (NanoBRET Target Engagement K192 Kinase Selectivity System)
Outline: as §1

SNRK = target: T20, SNRK (Homo sapiens, UniProt Q9NRH2); settings: HEK293
T20 construct: host or cells: HEK293
Outline: as §1

PRKACB = target: T21, PRKACB (Homo sapiens, UniProt P22694); settings: HEK293
T21 construct: purchased Promega (NanoBRET Target Engagement K192 Kinase Selectivity System)
Outline: as §1

PRKACA = target: T22, PRKACA (Homo sapiens, UniProt P17612); settings: HEK293
T22 construct: purchased Promega (NanoBRET Target Engagement K192 Kinase Selectivity System)
Outline: as §1

GAK = target: T23, GAK (Homo sapiens, UniProt O14976); settings: HEK293
T23 construct: purchased Promega (NanoBRET Target Engagement K192 Kinase Selectivity System)
Outline: as §1

RIOK2 = target: T24, RIOK2 (Homo sapiens, UniProt Q9BVS4); settings: HEK293
T24 construct: purchased Promega (NanoBRET Target Engagement K192 Kinase Selectivity System)
Outline: as §1

MYLK2 = target: T25, MYLK2 (Homo sapiens, UniProt Q9H1R3); settings: HEK293
T25 construct: purchased Promega (NanoBRET Target Engagement K192 Kinase Selectivity System)
Outline: as §1

JAK2 (V617F) = target: T26, JAK2 (V617F) (Homo sapiens, UniProt O60674, V617F); settings: HEK293
T26 construct: purchased Promega (NanoBRET Target Engagement K192 Kinase Selectivity System)
Outline: as §1

STK11 = target: T27, STK11 (Homo sapiens, UniProt Q15831); settings: HEK293
T27 construct: purchased Promega (NanoBRET Target Engagement K192 Kinase Selectivity System)
Outline: as §1

T13 sequence (P68400 whole entry): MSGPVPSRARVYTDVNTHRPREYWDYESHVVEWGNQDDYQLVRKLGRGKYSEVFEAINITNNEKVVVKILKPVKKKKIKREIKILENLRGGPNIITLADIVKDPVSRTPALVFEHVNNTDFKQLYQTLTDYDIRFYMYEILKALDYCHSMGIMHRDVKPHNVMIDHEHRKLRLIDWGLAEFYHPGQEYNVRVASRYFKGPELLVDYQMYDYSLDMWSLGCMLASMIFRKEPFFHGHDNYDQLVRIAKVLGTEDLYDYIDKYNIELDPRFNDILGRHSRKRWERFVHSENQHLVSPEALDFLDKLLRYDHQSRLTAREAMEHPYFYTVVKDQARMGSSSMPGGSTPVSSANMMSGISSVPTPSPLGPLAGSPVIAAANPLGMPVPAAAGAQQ
T6 sequence (Q76MJ5 35-926): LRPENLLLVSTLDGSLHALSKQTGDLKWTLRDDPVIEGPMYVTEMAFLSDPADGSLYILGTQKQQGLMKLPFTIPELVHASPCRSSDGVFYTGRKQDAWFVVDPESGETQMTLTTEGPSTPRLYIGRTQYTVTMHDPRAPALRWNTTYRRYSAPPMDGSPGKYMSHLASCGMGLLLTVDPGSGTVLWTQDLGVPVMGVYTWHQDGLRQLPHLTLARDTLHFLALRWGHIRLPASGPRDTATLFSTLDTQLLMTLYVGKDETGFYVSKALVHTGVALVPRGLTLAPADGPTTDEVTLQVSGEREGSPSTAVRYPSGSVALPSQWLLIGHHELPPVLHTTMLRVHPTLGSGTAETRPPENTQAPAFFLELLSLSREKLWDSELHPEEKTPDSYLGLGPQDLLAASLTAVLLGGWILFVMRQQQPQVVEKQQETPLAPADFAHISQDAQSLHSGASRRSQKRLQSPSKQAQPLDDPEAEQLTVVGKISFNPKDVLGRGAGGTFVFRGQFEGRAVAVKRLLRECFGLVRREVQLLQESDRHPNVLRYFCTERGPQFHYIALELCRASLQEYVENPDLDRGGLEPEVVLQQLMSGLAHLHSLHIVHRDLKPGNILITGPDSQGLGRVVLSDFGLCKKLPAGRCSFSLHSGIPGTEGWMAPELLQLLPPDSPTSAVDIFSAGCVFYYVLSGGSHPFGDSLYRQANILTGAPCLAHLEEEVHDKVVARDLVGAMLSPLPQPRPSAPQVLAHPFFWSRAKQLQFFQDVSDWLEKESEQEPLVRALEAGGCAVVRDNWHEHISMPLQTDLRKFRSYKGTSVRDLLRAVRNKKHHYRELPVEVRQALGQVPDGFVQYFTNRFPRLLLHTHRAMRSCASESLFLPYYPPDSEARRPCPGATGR
T7 sequence (Q13882 whole entry): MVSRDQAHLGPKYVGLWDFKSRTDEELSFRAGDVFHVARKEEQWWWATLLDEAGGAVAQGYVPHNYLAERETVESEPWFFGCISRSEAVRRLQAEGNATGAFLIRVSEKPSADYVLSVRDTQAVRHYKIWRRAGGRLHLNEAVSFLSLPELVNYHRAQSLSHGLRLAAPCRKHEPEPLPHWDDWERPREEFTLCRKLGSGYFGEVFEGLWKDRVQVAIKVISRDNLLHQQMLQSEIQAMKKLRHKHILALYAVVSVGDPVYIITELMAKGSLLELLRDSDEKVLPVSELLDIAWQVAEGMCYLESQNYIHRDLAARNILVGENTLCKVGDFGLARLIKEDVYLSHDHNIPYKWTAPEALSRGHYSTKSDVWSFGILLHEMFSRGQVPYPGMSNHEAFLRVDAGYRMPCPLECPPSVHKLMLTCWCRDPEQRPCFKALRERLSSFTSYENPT
T20 sequence (Q9NRH2 whole entry): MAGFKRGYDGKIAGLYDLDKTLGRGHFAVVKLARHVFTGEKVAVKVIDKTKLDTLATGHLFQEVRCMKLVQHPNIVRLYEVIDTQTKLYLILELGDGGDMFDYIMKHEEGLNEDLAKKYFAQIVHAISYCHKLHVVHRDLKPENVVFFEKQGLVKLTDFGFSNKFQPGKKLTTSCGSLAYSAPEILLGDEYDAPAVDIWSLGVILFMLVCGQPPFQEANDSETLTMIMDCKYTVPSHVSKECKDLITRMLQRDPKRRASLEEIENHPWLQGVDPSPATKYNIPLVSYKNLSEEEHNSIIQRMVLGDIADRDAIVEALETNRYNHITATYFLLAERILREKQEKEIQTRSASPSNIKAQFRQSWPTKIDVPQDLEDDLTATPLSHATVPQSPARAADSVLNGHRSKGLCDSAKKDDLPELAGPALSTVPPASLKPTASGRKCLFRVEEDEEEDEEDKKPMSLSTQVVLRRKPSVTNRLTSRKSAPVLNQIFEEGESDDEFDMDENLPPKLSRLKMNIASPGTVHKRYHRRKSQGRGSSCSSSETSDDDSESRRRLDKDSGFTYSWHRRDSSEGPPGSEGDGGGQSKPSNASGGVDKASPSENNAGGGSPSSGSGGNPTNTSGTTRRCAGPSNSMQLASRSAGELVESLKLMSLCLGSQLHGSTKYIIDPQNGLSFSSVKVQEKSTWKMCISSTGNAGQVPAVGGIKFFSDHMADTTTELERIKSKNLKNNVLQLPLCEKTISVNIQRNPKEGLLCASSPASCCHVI
T19 sequence (P54646 whole entry): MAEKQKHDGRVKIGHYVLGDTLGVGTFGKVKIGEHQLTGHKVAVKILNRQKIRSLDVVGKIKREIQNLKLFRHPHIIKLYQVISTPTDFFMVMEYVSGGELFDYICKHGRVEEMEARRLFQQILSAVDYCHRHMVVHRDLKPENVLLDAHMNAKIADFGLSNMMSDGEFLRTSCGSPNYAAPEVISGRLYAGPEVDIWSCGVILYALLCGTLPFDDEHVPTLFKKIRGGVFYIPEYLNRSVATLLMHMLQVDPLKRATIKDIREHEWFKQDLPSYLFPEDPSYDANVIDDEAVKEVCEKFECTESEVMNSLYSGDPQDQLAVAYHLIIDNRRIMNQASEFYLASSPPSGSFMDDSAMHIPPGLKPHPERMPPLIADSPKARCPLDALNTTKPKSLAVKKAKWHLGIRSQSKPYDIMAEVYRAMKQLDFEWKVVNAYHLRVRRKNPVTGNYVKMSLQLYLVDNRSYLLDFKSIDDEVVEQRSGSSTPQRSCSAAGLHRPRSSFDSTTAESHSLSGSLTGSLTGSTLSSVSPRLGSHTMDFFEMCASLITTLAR
T15 sequence (P54762 18-984): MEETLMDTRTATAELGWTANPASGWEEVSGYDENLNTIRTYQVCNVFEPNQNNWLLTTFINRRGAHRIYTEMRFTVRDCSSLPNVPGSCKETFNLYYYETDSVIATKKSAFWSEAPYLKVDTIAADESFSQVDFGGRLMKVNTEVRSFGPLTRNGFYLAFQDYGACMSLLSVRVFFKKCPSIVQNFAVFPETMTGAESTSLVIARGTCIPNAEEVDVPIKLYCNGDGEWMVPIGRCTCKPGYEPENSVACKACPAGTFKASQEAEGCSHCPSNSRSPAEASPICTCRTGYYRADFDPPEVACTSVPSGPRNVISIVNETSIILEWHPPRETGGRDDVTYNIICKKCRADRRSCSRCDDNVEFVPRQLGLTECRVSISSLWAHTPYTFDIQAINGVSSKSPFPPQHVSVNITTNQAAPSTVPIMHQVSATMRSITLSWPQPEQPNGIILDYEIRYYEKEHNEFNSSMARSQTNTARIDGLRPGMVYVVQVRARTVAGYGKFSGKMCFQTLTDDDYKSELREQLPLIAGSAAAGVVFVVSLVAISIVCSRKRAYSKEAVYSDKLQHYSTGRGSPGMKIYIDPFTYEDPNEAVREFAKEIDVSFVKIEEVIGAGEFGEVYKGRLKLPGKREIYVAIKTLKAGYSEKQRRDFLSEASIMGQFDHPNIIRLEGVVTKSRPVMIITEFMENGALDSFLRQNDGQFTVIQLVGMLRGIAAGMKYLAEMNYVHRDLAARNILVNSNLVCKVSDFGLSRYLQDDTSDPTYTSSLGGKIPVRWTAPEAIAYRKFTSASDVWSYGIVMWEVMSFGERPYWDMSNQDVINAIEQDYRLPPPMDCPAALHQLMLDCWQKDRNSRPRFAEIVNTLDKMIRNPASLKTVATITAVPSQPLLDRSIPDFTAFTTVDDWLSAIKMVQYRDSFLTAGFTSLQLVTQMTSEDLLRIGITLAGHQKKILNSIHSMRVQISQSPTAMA
T24 sequence (Q9BVS4 whole entry): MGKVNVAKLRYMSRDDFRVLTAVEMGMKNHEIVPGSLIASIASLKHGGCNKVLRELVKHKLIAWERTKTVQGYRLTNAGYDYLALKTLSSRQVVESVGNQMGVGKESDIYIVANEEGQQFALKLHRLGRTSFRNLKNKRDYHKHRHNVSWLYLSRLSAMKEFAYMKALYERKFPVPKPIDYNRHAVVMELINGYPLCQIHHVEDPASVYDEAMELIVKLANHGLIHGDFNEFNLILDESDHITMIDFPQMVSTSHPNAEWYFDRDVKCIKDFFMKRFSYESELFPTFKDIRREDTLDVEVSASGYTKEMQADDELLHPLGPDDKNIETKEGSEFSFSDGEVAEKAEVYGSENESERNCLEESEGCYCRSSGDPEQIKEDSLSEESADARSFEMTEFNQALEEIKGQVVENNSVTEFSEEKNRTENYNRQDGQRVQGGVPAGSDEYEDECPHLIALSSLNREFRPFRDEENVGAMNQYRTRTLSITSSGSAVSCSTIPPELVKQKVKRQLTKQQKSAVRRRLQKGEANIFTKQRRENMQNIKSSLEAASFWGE
T27 sequence (Q15831 whole entry): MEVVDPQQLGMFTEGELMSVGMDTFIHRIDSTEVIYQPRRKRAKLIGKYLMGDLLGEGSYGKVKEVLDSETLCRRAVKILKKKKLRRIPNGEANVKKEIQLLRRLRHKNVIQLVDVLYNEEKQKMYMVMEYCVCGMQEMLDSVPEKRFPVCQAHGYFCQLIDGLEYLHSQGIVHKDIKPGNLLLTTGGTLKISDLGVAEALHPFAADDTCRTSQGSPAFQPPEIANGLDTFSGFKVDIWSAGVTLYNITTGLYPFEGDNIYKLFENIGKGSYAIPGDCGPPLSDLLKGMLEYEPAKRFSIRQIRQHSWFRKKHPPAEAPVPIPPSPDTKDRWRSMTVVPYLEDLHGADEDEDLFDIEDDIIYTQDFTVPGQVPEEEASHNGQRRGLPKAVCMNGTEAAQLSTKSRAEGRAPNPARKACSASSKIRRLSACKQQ

## CCC(=O)Nc1cc(Nc2cc(NC3CC3)n3ncc(C#N)c3n2)c(F)cc1N1CCC[C@H](NC)C1 [Compound 2, (S)-N-(5-((3-cyano-7-(cyclopropylamino)pyrazolo[1,5-a]pyrimidin-5-yl)amino)-4-fluoro-2-(3-(methylamino)piperidin-1-yl)phenyl)propionamide]
EPHA6
  receptor occupancy at 10 µM: 7.3%
CDK2 + E1
  receptor occupancy at 10 µM: 15.9%
NEK5
  receptor occupancy at 10 µM: 24.8%
MAP3K9
  receptor occupancy at 10 µM: 4.3%
STK33
  receptor occupancy at 10 µM: 26%
ERN2
  receptor occupancy at 10 µM: 9.2%
PTK6
  receptor occupancy at 10 µM: 4.4%
NTRK1v1
  receptor occupancy at 10 µM: 4.6%
HIPK2
  receptor occupancy at 10 µM: 21.5%
ULK3v1
  receptor occupancy at 10 µM: -7.4%
BRAF(V600E)
  receptor occupancy at 10 µM: 5.3%
LIMK2
  receptor occupancy at 10 µM: 1.1%
CSNK2A1; CSNK2A1, HEK293
  % occupancy at 10 μM: 97%
CSNK2A1; HEK293, CSNK2A1
  receptor occupancy at 10 µM: 97.3%
PLK2
  receptor occupancy at 10 µM: 29.6%
EPHB1
  receptor occupancy at 10 µM: 4.7%
MAP4K1
  receptor occupancy at 10 µM: 5.1%
PTK2
  receptor occupancy at 10 µM: 15.7%
CSNK1A1L
  receptor occupancy at 10 µM: 1.5%
PRKAA2
  receptor occupancy at 10 µM: 0.5%
SNRK
  receptor occupancy at 10 µM: -2%
PRKACB
  receptor occupancy at 10 µM: 9.2%
PRKACA
  receptor occupancy at 10 µM: 11.7%
GAK
  receptor occupancy at 10 µM: 3.3%
RIOK2
  receptor occupancy at 10 µM: -1.8%
MYLK2
  receptor occupancy at 10 µM: 13.1%
JAK2 (V617F)
  receptor occupancy at 10 µM: 13.1%
STK11
  receptor occupancy at 10 µM: 0.1%
